We go through 2 compounds from PMC9499324, “Glycyrrhizic Acid Derivatives Bearing Amino Acid Residues in the Carbohydrate Part as Dengue Virus E Protein Inhibitors: Synthesis and Antiviral Activity” (International Journal of Molecular Sciences, 2022).

Where two headings read alike, the source gives them in different places.

In one experiment the test system is DENV2 prME/ZIKV SRIPs. Nature of the experiment: E protein-mediated attachment assay with chimeric DENV2 prME/ZIKV SRIPs on Vero E6 cells. The format is cell-based, Dengue virus type 2. As to conditions: Vero C1008, 1 h, read-out: IC50 of E-mediated attachment against DENV2 prME/ZIKV SRIPs. How it is done:
(§1) Figure 7 Attachment inhibition of chimeric DENV2 prM-E/ZIKV and wild-type ZIKV SRIPs by active GL derivatives 3 and 11. Vero E6 cells were pre-cooled and incubated with fresh-prepared mixtures of DENV2 prM-E/ZIKV or wild-type ZIKV SRIPs, with active GL derivatives 3 (A), and 11 (B) at 4 °C for 1 h, respectively. After the removal of the mixtures, the cells were kept at 37 °C for 18 h and then an immunofluorescent assay with anti-ZIKV NS1 antibodies plus DAPI staining was performed. Finally, the inhibition percentage of SRIP attachment infectivity was measured as follows: 1-(percentage of ZIKV NS1 positivity in treated cells/ percentage of ZIKV NS1 positivity in mock-treated cells). * p < 0.05; *** p < 0.001 compared with untreated, infected cells.
(§2) DNA-launched cytomegaloviruses (CMV) promoter-driven JEV and ZIKV replicons had been constructed, as described in our prior reports. […] After the removal of the mixture (the compound and SRIP), the cells were incubated at 37 °C for 18 h, and then were analyzed by immunofluorescent assay with anti-JEV NS3 and anti-ZIKV NS5 antibodies, respectively, plus DAPI staining for determining the residual infectivity of wild-type and chimeric SRIPs, as described above.

For a further experiment, the system named is wild-type ZIKV SRIPs. Nature of the experiment: Attachment assay with wild-type ZIKV SRIPs on Vero E6 cells. In kind it is cell-based, Zika virus. As to conditions: 4 °C for 1 h. How it is done:
as §1, §2

For another experiment, the system named is DENV2. The experiment can be described thus: DENV2 yield reduction assay (TCID50) in Vero E6 cells. The format is cell-based, Dengue virus type 2. How it is done:
Ten-fold serial dilutions of the cultured media of treated/infected cells harvested in the antiviral potency assay were applied to a monolayer of Vero E6 cells in the 96-well plates. After 96-h incubation, the number of CPE in each well of the dilution was calculated, and the indicated dilution with a 50% positivity rate of CPE in the cell culture was expressed as the […] (50%) tissue culture infectious dose (TCID50).

A further experiment concerns DENV1. The experiment can be described thus: DENV1 infectivity inhibition assay in Vero E6 cells. In kind it is cell-based. The settings on record: Dengue virus, DENV1, Vero C1008, read-out: IC50 in the DENV1 infectivity inhibition assay. As to the method: In the antiviral screening assay, each tested GL conjugate at 10 μM was used to survey the anti-DENV activity in Vero E6 cells using cytopathic effect (CPE) and infectivity reduction assays as described in our prior report. In CPE and infectivity reduction assays, Vero E6 cells were infected by DENV2 at an MOI of 0.005 and simultaneously treated 10 μM of indicated GL conjugate for 96 h, and then photographed by microscope for examining the levels of DENV2-induced CPE in infected cells treated with or without GL conjugate. Meanwhile, the cells were further performed using immunofluorescence assay (IFA) with anti-DENV NS4B antibodies (GeneTex, Inc., Hsinchu, Taiwan) and anti-rabbit IgG antibodies conjugated with AF555 (ThermoFisher, Waltham, MA, USA) plus DAPI (4′,6-diamidino-2-phenylindole) nuclear staining. Finally, the DENV-2 infectivity was measured according to the ratio of DENV NS4B-positive cells to DAPI-stained cells in the well of mock-treated or treated cells, as described in [45, 59, 60].
Supplemental Figure S25. Infectivity inhbition of DENV1 in Vero E6 cells by active GL conjugates. Cells were infected with DENV1 in the presence and absence of Compounds 3, 6, 11, and 21 at the concentrations of 0.1, 1, and 10 μM, respectively. Treated/infected Vero E6 cells were also analyzed using immunofluorescence staining with anti-DENV2 NS4B antibodies.
Residual infectivity was discovered by the ratio of DENV2 NS4B positive cells to total cells stained with DAPI, and relative inhibition activity was determined based on full infectivity with the subtraction of its residual infectivity.
(1 picture or pasted object on this page, not shown here)

[1] abbreviates: Dengue virus, DENV2, Vero C1008, 96 h, read-out: IC50 on the viral yield of DENV2, Vero E6 cells, TCID50 assay, 96 h.

Consider `COC(=O)[C@H](NC(=O)[C@H]1O[C@@H](O[C@H]2[C@H](OC3CC[C@@]4(C)C(CC[C@]5(C)C4C(=O)C=C4C6C[C@@](C)(C(=O)O)CC[C@]6(C)CC[C@]45C)C3(C)C)O[C@H](C(=O)N[C@@H](C(=O)OC)C(C)C)[C@@H](O)[C@@H]2O)[C@H](O)[C@@H](O)[C@@H]1O)C(C)C` (stereo partly drawn) [Compound 3, 3-O-{2-O-[N-(β-D-Glucopyranosyluronoyl)-D-valinemethyl ester]-N-(β-D-glucopyranosyluronoyl)-D-valinemethyl ester}-(3β, 20β)-11-oxo-30-noroleane-12-ene-30-oic Acid], for which the IC50 came to 2820 nM in the experiment on DENV2 prME/ZIKV SRIPs, 500 nM in the experiment on DENV2 (setting [1]) and 2810 ± 540 nM with DENV1. The “Attachment of wild-type ZIKV SRIPs onto Vero E6 cells” value in the experiment on wild-type ZIKV SRIPs is reported as “did not impede”.
On to `CCOC(=O)[C@H](Cc1ccccc1)NC(=O)[C@H]1O[C@@H](O[C@H]2[C@H](OC3CC[C@@]4(C)C(CC[C@]5(C)C4C(=O)C=C4C6C[C@@](C)(C(=O)O)CC[C@]6(C)CC[C@]45C)C3(C)C)O[C@H](C(=O)N[C@@H](Cc3ccccc3)C(=O)OCC)[C@@H](O)[C@@H]2O)[C@H](O)[C@@H](O)[C@@H]1O` (stereo partly drawn) [Compound 11, 3-O-{2-O-[N-(β-D-Glucopyranosyluronoyl)-L-phenylalanineethyl ester]-N-(β-D-Glucopyranosyluronoyl)-L-phenylalanineethyl ester}-(3β, 20β)-11-oxo-30-noroleane-12-ene-30-oic Acid], for which the IC50 in the experiment with DENV2 prME/ZIKV SRIPs turned out to be 1260 nM; in the experiment on DENV2 (setting [1]), 200 nM; in the experiment with DENV2 (read-out: IC50 on the viral yield of DENV2, Vero E6 cells, TCID50 assay, 96 h) it was 170 nM; with DENV1, 1250 ± 167 nM. The “Attachment of wild-type ZIKV SRIPs onto Vero E6 cells” value in the experiment with wild-type ZIKV SRIPs is “did not impede”.
